Assay results reported in ChEMBL document CHEMBL1671626, “In vitro profiling of ceftaroline against a collection of recent bacterial clinical isolates from across the United States” (2008).
≈ marks a conversion by molar mass, not a printed value.

Columns and labels:
Assay type in all cases: functional
Enterobacteriaceae [1] = assay: Antibacterial activity against ceftazidime-susceptible Enterobacteriaceae by CLSI M7-A7 broth microdilution method
Enterobacteriaceae [2] = assay: Antibacterial activity against ceftazidime-susceptible Enterobacteriaceae assessed as susceptible isolates by CLSI M7-A7 broth microdilution method
Enterobacteriaceae [3] = assay: Antibacterial activity against ceftazidime-susceptible Enterobacteriaceae assessed as resistant isolates by CLSI M7-A7 broth microdilution method
Enterobacteriaceae [4] = assay: Antibacterial activity against ceftazidime-nonsusceptible Enterobacteriaceae by CLSI M7-A7 broth microdilution method
Enterobacteriaceae [5] = assay: Antibacterial activity against ceftazidime-nonsusceptible Enterobacteriaceae assessed as susceptible isolates by CLSI M7-A7 broth microdilution method
Enterobacteriaceae [6] = assay: Antibacterial activity against ceftazidime-nonsusceptible Enterobacteriaceae assessed as resistant isolates by CLSI M7-A7 broth microdilution method
Citrobacter freundii [7] = assay: Antibacterial activity against ceftazidime-susceptible Citrobacter freundii by CLSI M7-A7 broth microdilution method
Citrobacter freundii [8] = assay: Antibacterial activity against ceftazidime-susceptible Citrobacter freundii assessed as susceptible isolates by CLSI M7-A7 broth microdilution method
Citrobacter freundii [9] = assay: Antibacterial activity against ceftazidime-susceptible Citrobacter freundii assessed as resistant isolates by CLSI M7-A7 broth microdilution method
Citrobacter freundii [10] = assay: Antibacterial activity against ceftazidime-nonsusceptible Citrobacter freundii by CLSI M7-A7 broth microdilution method
Citrobacter freundii [11] = assay: Antibacterial activity against ceftazidime-nonsusceptible Citrobacter freundii assessed as susceptible isolates by CLSI M7-A7 broth microdilution method
Citrobacter freundii [12] = assay: Antibacterial activity against ceftazidime-nonsusceptible Citrobacter freundii assessed as resistant isolates by CLSI M7-A7 broth microdilution method
Enterobacter cloacae [13] = assay: Antibacterial activity against ceftazidime-susceptible Enterobacter cloacae by CLSI M7-A7 broth microdilution method
Enterobacter cloacae [14] = assay: Antibacterial activity against ceftazidime-susceptible Enterobacter cloacae assessed as susceptible isolates by CLSI M7-A7 broth microdilution method
Enterobacter cloacae [15] = assay: Antibacterial activity against ceftazidime-susceptible Enterobacter cloacae assessed as resistant isolates by CLSI M7-A7 broth microdilution method
Enterobacter cloacae [16] = assay: Antibacterial activity against ceftazidime-nonsusceptible Enterobacter cloacae by CLSI M7-A7 broth microdilution method
Enterobacter cloacae [17] = assay: Antibacterial activity against ceftazidime-nonsusceptible Enterobacter cloacae assessed as susceptible isolates by CLSI M7-A7 broth microdilution method
Enterobacter cloacae [18] = assay: Antibacterial activity against ceftazidime-nonsusceptible Enterobacter cloacae assessed as resistant isolates by CLSI M7-A7 broth microdilution method
Escherichia coli [19] = assay: Antibacterial activity against ceftazidime-susceptible Escherichia coli by CLSI M7-A7 broth microdilution method
Escherichia coli [20] = assay: Antibacterial activity against ceftazidime-susceptible Escherichia coli assessed as susceptible isolates by CLSI M7-A7 broth microdilution method
Escherichia coli [21] = assay: Antibacterial activity against ceftazidime-susceptible Escherichia coli assessed as resistant isolates by CLSI M7-A7 broth microdilution method
Escherichia coli [22] = assay: Antibacterial activity against ceftazidime-nonsusceptible Escherichia coli by CLSI M7-A7 broth microdilution method
Escherichia coli [23] = assay: Antibacterial activity against ceftazidime-nonsusceptible Escherichia coli assessed as susceptible isolates by CLSI M7-A7 broth microdilution method
Escherichia coli [24] = assay: Antibacterial activity against ceftazidime-nonsusceptible Escherichia coli assessed as resistant isolates by CLSI M7-A7 broth microdilution method
Klebsiella pneumoniae [25] = assay: Antibacterial activity against ceftazidime-susceptible Klebsiella pneumoniae by CLSI M7-A7 broth microdilution method
Klebsiella pneumoniae [26] = assay: Antibacterial activity against ceftazidime-susceptible Klebsiella pneumoniae assessed as susceptible isolates by CLSI M7-A7 broth microdilution method
Klebsiella pneumoniae [27] = assay: Antibacterial activity against ceftazidime-susceptible Klebsiella pneumoniae assessed as resistant isolates by CLSI M7-A7 broth microdilution method
Klebsiella pneumoniae [28] = assay: Antibacterial activity against ceftazidime-nonsusceptible Klebsiella pneumoniae by CLSI M7-A7 broth microdilution method
Klebsiella pneumoniae [29] = assay: Antibacterial activity against ceftazidime-nonsusceptible Klebsiella pneumoniae assessed as susceptible isolates by CLSI M7-A7 broth microdilution method
Klebsiella pneumoniae [30] = assay: Antibacterial activity against ceftazidime-nonsusceptible Klebsiella pneumoniae assessed as resistant isolates by CLSI M7-A7 broth microdilution method
Morganella morganii [31] = assay: Antibacterial activity against ceftazidime-susceptible Morganella morganii by CLSI M7-A7 broth microdilution method
Morganella morganii [32] = assay: Antibacterial activity against ceftazidime-susceptible Morganella morganii assessed as susceptible isolates by CLSI M7-A7 broth microdilution method
Morganella morganii [33] = assay: Antibacterial activity against ceftazidime-susceptible Morganella morganii assessed as resistant isolates by CLSI M7-A7 broth microdilution method
Proteus mirabilis [34] = assay: Antibacterial activity against ceftazidime-susceptible Proteus mirabilis by CLSI M7-A7 broth microdilution method
Proteus mirabilis [35] = assay: Antibacterial activity against ceftazidime-susceptible Proteus mirabilis assessed as susceptible isolates by CLSI M7-A7 broth microdilution method
Proteus mirabilis [36] = assay: Antibacterial activity against ceftazidime-susceptible Proteus mirabilis assessed as resistant isolates by CLSI M7-A7 broth microdilution method
Serratia marcescens [37] = assay: Antibacterial activity against ceftazidime-susceptible Serratia marcescens by CLSI M7-A7 broth microdilution method
Serratia marcescens [38] = assay: Antibacterial activity against ceftazidime-susceptible Serratia marcescens assessed as susceptible isolates by CLSI M7-A7 broth microdilution method
Serratia marcescens [39] = assay: Antibacterial activity against ceftazidime-susceptible Serratia marcescens assessed as resistant isolates by CLSI M7-A7 broth microdilution method
Acinetobacter [40] = assay: Antibacterial activity against multidrug-resistant Acinetobacter by CLSI M7-A7 broth microdilution method
Acinetobacter [41] = assay: Antibacterial activity against imipenem-susceptible Acinetobacter by CLSI M7-A7 broth microdilution method
Haemophilus influenzae [42] = assay: Antibacterial activity against beta lactamase-negative Haemophilus influenzae by CLSI M7-A7 broth microdilution method
Haemophilus influenzae [43] = assay: Antibacterial activity against beta lactamase-negative Haemophilus influenzae assessed as susceptible isolates by CLSI M7-A7 broth microdilution method
Haemophilus influenzae [44] = assay: Antibacterial activity against beta lactamase-negative Haemophilus influenzae assessed as resistant isolates by CLSI M7-A7 broth microdilution method
Haemophilus influenzae [45] = assay: Antibacterial activity against beta lactamase-positive Haemophilus influenzae by CLSI M7-A7 broth microdilution method
Haemophilus influenzae [46] = assay: Antibacterial activity against beta lactamase-positive Haemophilus influenzae assessed as susceptible isolates by CLSI M7-A7 broth microdilution method
Haemophilus influenzae [47] = assay: Antibacterial activity against beta lactamase-positive Haemophilus influenzae assessed as resistant isolates by CLSI M7-A7 broth microdilution method
Providencia sp. [48] = assay: Antibacterial activity against ceftazidime-susceptible Providencia sp. by CLSI M7-A7 broth microdilution method
Providencia sp. [49] = assay: Antibacterial activity against ceftazidime-susceptible Providencia sp. assessed as susceptible isolates by CLSI M7-A7 broth microdilution method
Providencia sp. [50] = assay: Antibacterial activity against ceftazidime-susceptible Providencia sp. assessed as resistant isolates by CLSI M7-A7 broth microdilution method

Q: What does the source list for CC1(C)S[C@@H]2[C@H](NC(=O)[C@H](N)c3ccccc3)C(=O)N2[C@H]1C(=O)O [AMPICILLIN]?
A: MIC50 (Enterobacteriaceae [1]): 32 µg/mL (≈ 91.6 µM); MIC90 (Enterobacteriaceae [1]): > 32 µg/mL; Activity (Enterobacteriaceae [2]): 35.2%; Activity (Enterobacteriaceae [3]): 57%; MIC (Enterobacteriaceae [4]): > 32 µg/mL; MIC50 (Enterobacteriaceae [4]): > 32 µg/mL; MIC90 (Enterobacteriaceae [4]): > 32 µg/mL; Activity (Enterobacteriaceae [5]): 0%; Activity (Enterobacteriaceae [6]): 100%; MIC50 (Citrobacter freundii [7]): 16 µg/mL (≈ 45.8 µM); MIC90 (Citrobacter freundii [7]): > 32 µg/mL; Activity (Citrobacter freundii [8]): 36%; Activity (Citrobacter freundii [9]): 42%; MIC (Citrobacter freundii [10]): > 32 µg/mL; MIC50 (Citrobacter freundii [10]): > 32 µg/mL; MIC90 (Citrobacter freundii [10]): > 32 µg/mL; Activity (Citrobacter freundii [11]): 0%; Activity (Citrobacter freundii [12]): 100%; MIC50 (Enterobacter cloacae [13]): 32 µg/mL (≈ 91.6 µM); MIC90 (Enterobacter cloacae [13]): > 32 µg/mL; Activity (Enterobacter cloacae [14]): 20%; Activity (Enterobacter cloacae [15]): 66%; MIC (Enterobacter cloacae [16]): > 32 µg/mL; MIC50 (Enterobacter cloacae [16]): > 32 µg/mL; MIC90 (Enterobacter cloacae [16]): > 16 µg/mL; Activity (Enterobacter cloacae [17]): 0%; Activity (Enterobacter cloacae [18]): 100%; MIC50 (Escherichia coli [19]): 4 µg/mL (≈ 11.4 µM); MIC90 (Escherichia coli [19]): > 32 µg/mL; Activity (Escherichia coli [20]): 58.3%; Activity (Escherichia coli [21]): 40.9%; MIC (Escherichia coli [22]): > 32 µg/mL; MIC50 (Escherichia coli [22]): > 32 µg/mL; MIC90 (Escherichia coli [22]): > 32 µg/mL; Activity (Escherichia coli [23]): 0%; Activity (Escherichia coli [24]): 100%; MIC50 (Klebsiella pneumoniae [25]): > 32 µg/mL; MIC90 (Klebsiella pneumoniae [25]): > 32 µg/mL; Activity (Klebsiella pneumoniae [26]): 5.2%; Activity (Klebsiella pneumoniae [27]): 80%; MIC (Klebsiella pneumoniae [28]): > 32 µg/mL; MIC50 (Klebsiella pneumoniae [28]): > 32 µg/mL; MIC90 (Klebsiella pneumoniae [28]): > 32 µg/mL; Activity (Klebsiella pneumoniae [29]): 0%; Activity (Klebsiella pneumoniae [30]): 100%; MIC50 (Morganella morganii [31]): > 32 µg/mL; MIC90 (Morganella morganii [31]): > 32 µg/mL; Activity (Morganella morganii [32]): 8.8%; Activity (Morganella morganii [33]): 85.3%; MIC50 (Proteus mirabilis [34]): 1 µg/mL (≈ 2.86 µM); MIC90 (Proteus mirabilis [34]): > 32 µg/mL; Activity (Proteus mirabilis [35]): 72.4%; Activity (Proteus mirabilis [36]): 27.6%; MIC50 (Serratia marcescens [37]): > 32 µg/mL; MIC90 (Serratia marcescens [37]): > 32 µg/mL; Activity (Serratia marcescens [38]): 3.4%; Activity (Serratia marcescens [39]): 83.1%; MIC (Acinetobacter [40]): > 32 µg/mL; MIC50 (Acinetobacter [40]): > 32 µg/mL; MIC50 (Acinetobacter [41]): 16 µg/mL (≈ 45.8 µM); MIC90 (Acinetobacter [41]): > 32 µg/mL; MIC (Haemophilus influenzae [42]): ≤ 0.25 µg/mL; MIC50 (Haemophilus influenzae [42]): ≤ 0.25 µg/mL; MIC90 (Haemophilus influenzae [42]): 0.5 µg/mL (≈ 1.43 µM); Activity (Haemophilus influenzae [43]): 99%; Activity (Haemophilus influenzae [44]): 1%; MIC50 (Haemophilus influenzae [45]): 32 µg/mL (≈ 91.6 µM); MIC90 (Haemophilus influenzae [45]): > 32 µg/mL; Activity (Haemophilus influenzae [46]): 2%; Activity (Haemophilus influenzae [47]): 97%; MIC50 (Providencia sp. [48]): 32 µg/mL (≈ 91.6 µM); MIC90 (Providencia sp. [48]): > 32 µg/mL; Activity (Providencia sp. [49]): 22.2%; Activity (Providencia sp. [50]): 66.7%
